Experimental data as given in patent US20220249607A1, “Method of treatment of degenerative diseases caused by membrane channel-forming peptides fragments” (Zarbio, priority 2021, published 2022).
“Also recorded” adds a separate entry of the source. Like-named read-outs stand apart in the source and are kept apart here.

Experiments:
[1] = cited from earlier work
[2] = Flow cytometric permeabilization of negatively charged liposomes to calcium; details: for permeabilization of negatively charged liposomes to calcium: phosphatidylserine liposomes, Fluo-3, flow cytometry
Description: To improve the quantitative aspect of studying the permeabilization of liposomes by […], we developed a flow cytometric technique which allowed us to estimate the number of channel-forming units in the solutions of peptide (Zaretsky and Zaretskaia 2020). This number appears extremely small compared to the total amount of peptide. In model conditions, one channel is formed out of approximately 10^12 molecules of Aβ25-35. The low ratio of channels created by the peptide would not allow for the studying of channel formation using typical methods of protein biology, such as spectroscopy or NMR, for the reason that the signal of interest being too low. Even though the proportion of channels is small, when the peptide was added in micromolar concentrations, thousands of permeabilized vesicles could be observed, which makes the power of channel formation biologically relevant.
(§1) The figure is a composite of data which was presented and analyzed in detail in (Zaretsky and Zaretskaia 2020, Zaretsky and Zaretskaia 2020). Liposomes (400 nm) were made of either phosphatidylserine (A-E, negatively charged lipid) or phosphatidylcholine (F-H, neutral lipid) with added DiD and were extruded in the Ca-free buffer containing 1 mM Fluo-3. After the addition of calcium, aliquots of peptide were added. Ionomycin was used as a positive control. Fluorescence of liposomes was analyzed using a flow cytometer. Each dot at the graph represent a single liposome registered in the flow. The intensity of DiD fluorescence characterizes the amount of membrane material in the liposome, while the fluorescence of Fluo-3 depends on the intraliposomal presence of calcium. […] The liposomes inside rectangle (area R1) are permeabilized, and the number of liposomes which were counted to be within the area is shown.

[3] = Flow cytometric permeabilization of neutral liposomes to calcium; details: phosphatidylcholine liposomes, Fluo-3, flow cytometry
Protocol: as §1

[4] = target: amyloid channels (Homo sapiens, UniProt P05067); details: cited from earlier work
[5] = tested on: Aβ-induced apoptosis in the brain; details: rat brain, cited from earlier work; for effect on Aβ-induced apoptosis (TUNEL) / effect on accumulation of Aβ immunoreactivity / amyloid: simultaneous i.c.v. infusion with Aβ; for effect on apoptosis by the inhibitor itself (spontaneous apoptosis): without Aβ, TUNEL
[6] = tested on: lysosomes of cells loaded with Lucifer Yellow; details: 20 hours incubation; Ji, Miranda et al. 2002; cited from earlier work
[7] = tested on: 15 cells derived from pancreatic islets of Langerhans; details: cited from earlier work; for effect on beta-amyloid-induced drop in cell viability: MTT, stated for both cell lines
[8] = tested on: 15 cells derived from pancreatic islets of Langerhans; details: cited from earlier work
[9] = tested on: Aβ1-42 toxicity; details: cited from earlier work
[10] = tested on: Aβ1-42-induced drop of cell survival; details: Tizon, Ribe et al. 2010; cited from earlier work
[11] = study of Aksenov, Aksenova et al. 1996

Chain of amyloid channels (P05067 672-713 limits assumed): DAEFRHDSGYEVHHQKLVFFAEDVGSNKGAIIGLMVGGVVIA

Q: For “Aβ25-35: positively charged short channel-forming fragment of beta-amyloid (GSNKGAIIGLM; Amyloid-beta protein 42; UniProt P05067 696-706, looked up, fragment)”, which “percentage of channels with a conductance” value ([1]; acidic pH (pH 5.0), 20 μM peptide) is on record?
A: more than 30%

Q: And the “conductance of formed channels” value ([1]; upper end of conductance)?
A: up to 1 nS

Q: What about the “number of peptide molecules out of which one channel is formed” value ([2]; model conditions) of the same molecule?
A: approximately 10^12 molecules

Q: And the “permeabilization of negatively charged liposomes to calcium” value [2]?
A: creates multiple liposomes permeable to calcium

Q: What about the “permeabilization of neutral liposomes to calcium” value [3] of the same molecule?
A: does not permeabilize liposomes; also recorded: not permeabilized

Q: For `NC(CO)(CO)CO` [tromethamine], which “blockade of smaller amyloid channels” value ([4]; channels <400 pS) is on record?
A: effectively blocked

Q: And the “blockade of giant amyloid channels” value ([4]; super-high conductance channels >1 nS)?
A: less effective

Q: For `CC(=O)N[C@@H](CC(C)C)C(=O)N[C@@H](CC(C)C)C(=O)N[C@H](C=O)CCCNC(=N)N` [leupeptin], which “effect on Aβ-induced apoptosis (TUNEL)” value [5] is on record?
A: promoted apoptosis

Q: What about the “effect on accumulation of Aβ immunoreactivity / amyloid” value [5] of the same molecule?
A: promoted

Q: And the “effect on apoptosis by the inhibitor itself (spontaneous apoptosis)” value [5]?
A: tends to increase apoptosis by itself

Q: Which “pattern of Lucifer Yellow fluorescence in cells (lysosomal permeabilization)” value [6] does the source give for Aβ1-42: full-length amyloid peptide here?
A: diffuse intracellular pattern of fluorescence

Q: And the “permeabilization of negatively charged liposomes to calcium” value [2]?
A: ineffective in the permeabilization of the membranes; also recorded: does not permeabilize liposomal membranes

Q: With `C[C@H](CCC(=O)O)C[C@H](C)C[C@H](C)C(=O)/C=C(\O)[C@H](C)C[C@H](C)C/C=C/[C@@H](C)[C@@H](O)[C@@H](C)[C@@H](O)C[C@@H]1CC[C@@](C)([C@H]2CC[C@@](C)([C@@H](C)O)O2)O1` [ionomycin] as the molecule, how does the “permeabilization of negatively charged liposomes to calcium” value [2] read?
A: permeabilizes liposomes

Q: What about the “permeabilization of neutral liposomes to calcium” value [3] of the same molecule?
A: permeabilizes thousands of liposomes

Q: Which results are given for aprotinin?
A: effect on Aβ-induced apoptosis (TUNEL) [5]: prevented Aβ-induced apoptosis; effect on accumulation of Aβ immunoreactivity / amyloid [5]: did not exacerbate intracellular accumulation of amyloid; effect on apoptosis by the inhibitor itself (spontaneous apoptosis) [5]: tends to decrease even spontaneously occurring apoptosis

Q: With “Aβ22-35: longer beta-amyloid fragment without positive overall charge, non-channel-forming (EDVGSNKGAIIGLM; Amyloid-beta protein 42; UniProt P05067 693-706, looked up, fragment)” as the molecule, how does the “permeabilization of negatively charged liposomes to calcium” value [2] read?
A: does not create a noticeable number of channels; also recorded: does not permeabilize liposomes

B1: α1-anti-chymotrypsin (protein, UniProt P01011 24-423, looked up)
Alpha-1-antichymotrypsin: HPNSPLDEENLTQENQDRGTHVDLGLASANVDFAFSLYKQLVLKAPDKNVIFSPLSISTALAFLSLGAHNTTLTEILKGLKFNLTETSEAEIHQSFQHLLRTLNQSSDELQLSMGNAMFVKEQLSLLDRFTEDAKRLYGSEAFATDFQDSAAAKKLINDYVKNGTRGKITDLIKDLDSQTMMVLVNYIFFKAKWEMPFDPQDTHQSRFYLSKKKWVMVPMMSLHHLTIPYFRDEELSCTVVELKYTGNASALFILPDQDKMEEVEAMLLPETLKRWRDSLEFREIGELYLPKFSISRDYNLNDILLQLGIEEAFTSKADLSGITGARNLAVSQVVHKAVLDVFEEGTEASAATAVKITLLSALVETRTIVRFNRPFLMIIVPTDTQNIFFMSKVTNPKQA
Q: Which “effect on beta-amyloid-induced drop in cell viability” value [7] does the source give for B1 here?
A: can protect against Aβ-induced drop in cell viability

Q: What about the “effect on beta-amyloid-induced drop in cell viability” value ([7]; listed as α1-anti-chymotrypsin) of the same molecule?
A: prevented

Q: And the “effect of further increase of concentration on protection against beta-amyloid” value ([7]; above optimal dose, both cell lines)?
A: disappearance of protection

Q: What about the “protection against beta-amyloid-induced drop in cell viability” value ([7]; in some conditions, stated for both cell lines (15 cells, cortical cultures)) of the same molecule?
A: ≤ 100%

Q: What about the “effect on amylin-induced drop in cell viability” value ([8]; MTT, listed as anti-chymotrypsin) of the same molecule?
A: prevent amylin-induced cellular toxicity

Q: What about the “effect on amylin-induced drop in cell viability” value ([8]; MTT, listed as α1-anti-chymotrypsin) of the same molecule?
A: prevented

Q: What about the protection against amylin ([8]; MTT) of the same molecule?
A: < 100%

Q: What about the “effect of further increase of concentration on protection against amylin” value ([8]; above optimal dose) of the same molecule?
A: significantly decreased the protective effect

Q: And the “effect on Aβ1-42 toxicity” value [9, 11]?
A: attenuated Aβ1-42 toxicity

Q: And the “effect on fibril formation” value [9, 11]?
A: without affecting fibril formation

Q: And the “effect on Aβ toxicity” value ([9]; study of Ma, Brewer et al. 1996)?
A: not effective

B2: cystatin C (protein, UniProt P01034 27-146, looked up)
Cystatin-C: SSPGKPPRLVGGPMDASVEEEGVRRALDFAVGEYNKASNDMYHSRALQVVRARKQIVAGVNYFLDVELGRTTCTKTQPNLDNCPFHDQPHLKRKAFCSFQIYAVPWQGTMTLSKSTCQDA
Q: For B2, which “effect on drop of cell survival induced by Aβ1-42” value [10] is on record?
A: prevented the drop of cell survival
